Experiments:
[1] = biological target: recombinant human cannabinoid 1 receptor (CB1) (Homo sapiens, UniProt P21554); test: [35S]GTPγS binding assay, antagonism against WIN 55,212-2; assay type: biochemical; settings: compound at 1 μM against WIN 55,212-2 dose response; CHO-CB1 membranes; 100% = effect of internal standard CB1-antagonist
Description: The percentage of catalepsy is determined according to the following formula: % Catalepsy=arithmetic mean/6×100 Antagonistic Assay: Materials and Methods. Membrane Preparation:
Chinese hamster ovary (CHO) cells stably expressing recombinant human cannabinoid 1 receptor (CB1) were cultured in nutrient mixture Ham's F 12 supplemented with 10% heat-inactivated fetal bovine serum, 2 mM L-glutamine, 50 U/ml penicillin, 50 U/ml streptomycin and 0.5 mg/ml geneticin. In order to obtain cells, culture flasks were washed twice with phosphate buffered saline and scraped. Then, cells were collected by centrifugation (200×g, 10 min) and stored dry at −80° C. Cells were homogenized in ice-cold 20 mM HEPES, 10 mM EDTA (pH 7.5) and centrifuged at 40,000×g for 15 min at 4° C. The pellet was resuspended in 20 mM HEPES, 0.1 mM EDTA (pH 7.5) and centrifuged for 15 min at 4° C. The final pellet was resuspended in 20 mM HEPES, 0.1 mM EDTA (pH 7.5), and divided in aliquots and stored at −80° C. until use.
[^35S]GTPγS Binding Assay:
The reaction was performed in 96-well plates. Membranes (15 µg protein/well) were incubated for 60 min at 30° C. in buffer (50 mM HEPES, 100 mM KCl, 5 mM MgCl2, 1 mM EDTA, 0.1% wt/vol bovine serum albumin, 5 μM GDP, saponin (10 μg/ml), 0.5 nM [^35S]GTPγS, pH 7.4) with compound at 1 μM final concentration in either the absence or presence of dose response curve of agonist WIN 55,212-2 between 3 nM and 3 μM. The incubation was terminated by rapid filtration through Millipore Multiscreen glass fiber FB, and rinsed two-times with ice-cold assay buffer. Filter plates were dried and 30 μl of scintillation liquid was added. Radioactivity was determined using Wallac Microbeta Trilux. Each experiment was performed at least in duplicate. A WIN 55,212-2 dose-response was systematically performed.
The average of basal [^35S]GTPγS binding was subtracted from all binding data. In order to compare the antagonism results from one screening campaign to another one, the difference between the maximal agonist effect of WIN 55,212-2 alone, and the maximal antagonism effect due to WIN 55,212-2 with an internal standard CB1-antagonist was defined as 100%.

CB1 receptor = biological target: T1, CB1 receptor (Homo sapiens, UniProt P21554); test: In-vitro determination of affinity to CB1/CB2 receptors (radioligand [3H]-CP55940); settings: transfected human receptor, binding
T1 construct: purchased Receptor Biology, Inc
Description: Pharmacological Data: Pharmacological Methods I. In-Vitro Determination of Affinity to CB1/CB2-Receptors
The in-vitro determination of the affinity of the inventive quaternary ammonium salts of substituted pyrazoline compounds to CB1/CB2-Rezeptors is carried out as described in the publication of Ruth A. Ross, Heather C. Brockie et al., “Agonist-inverse agonist characterization at CB1 and CB2 cannabinoid receptors of L-759633, L759656 and AM630”, British Journal of Pharmacology, 126, 665-672, (1999), whereby the transfected human CB1 and CB2 receptors of Receptor Biology, Inc. are used. The radioligand used for both receptors is [^3H]-CP55940. The respective parts of the description are hereby incorporated by reference and forms part of the present disclosure.
The affinity of the inventive substituted pyrazoline compounds to CB1/CB2 receptors was determined as described above.

recombinant human cannabinoid 1 receptor (CB1), sequence (P21554 whole entry): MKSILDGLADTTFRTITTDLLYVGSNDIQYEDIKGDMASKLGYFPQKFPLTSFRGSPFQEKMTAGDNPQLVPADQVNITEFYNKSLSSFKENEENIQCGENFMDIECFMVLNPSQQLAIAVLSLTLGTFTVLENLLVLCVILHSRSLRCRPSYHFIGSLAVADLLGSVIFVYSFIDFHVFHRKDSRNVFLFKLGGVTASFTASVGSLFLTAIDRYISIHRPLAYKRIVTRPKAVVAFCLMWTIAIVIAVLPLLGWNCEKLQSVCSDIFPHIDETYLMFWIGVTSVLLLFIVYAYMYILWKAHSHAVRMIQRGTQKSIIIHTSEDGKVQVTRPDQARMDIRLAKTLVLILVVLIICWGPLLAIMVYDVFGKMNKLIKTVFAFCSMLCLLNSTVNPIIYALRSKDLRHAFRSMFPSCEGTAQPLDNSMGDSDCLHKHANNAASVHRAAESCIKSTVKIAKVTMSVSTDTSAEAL
T1 sequence (P21554 whole entry): as above

Antagonism (%) [1]	IC50 (CB1 receptor)	Structure (SMILES)
48%	–	C[C@H]1C(C(=O)NN2CCc3ccccc32)=NN(c2ccc(Cl)cc2Cl)[C@H]1c1ccc(F)cc1 (relative stereo) [Example 8, cis-1-(2,4-dichlorophenyl)-5-(4-fluorophenyl)-N-(indolin-1-yl)-4-methyl-4,5-dihydro-1H-pyrazole-3-carboxamide]
67 ± 3%	39 nM	C[C@@H]1C(C(=O)NN2CCc3ccccc32)=NN(c2ccc(Cl)cc2Cl)[C@H]1c1ccc(Br)cc1 (relative stereo) [Example 7, trans-5-(4-bromophenyl)-1-(2,4-dichlorophenyl)-N-(indolin-1-yl)-4-methyl-4,5-dihydro-1H-pyrazole-3-carboxamide]
16 ± 15%	128 nM	CC1Cc2ccccc2N1NC(=O)C1=NN(c2ccc(Cl)cc2Cl)[C@@H](c2ccc(Cl)cc2)[C@H]1C (relative stereo) [Example 5, cis-5-(4-chlorophenyl)-1-(2,4-dichlorophenyl)-4-methyl-N-(2-methylindolin-1-yl)-4,5-dihydro-1H-pyrazole-3-carboxamide]
70%	100 nM	C[C@H]1C(C(=O)NN2CCc3ccccc32)=NN(c2ccc(Cl)cc2Cl)[C@H]1c1ccc(Cl)cc1 [Example 3, (4R,5R)-5-(4-chlorophenyl)-1-(2,4-dichlorophenyl)-N-(indolin-1-yl)-4-methyl-4,5-dihydro-1H-pyrazole-3-carboxamide]
